This note sets out measurements from US8124624B2, “Substituted sulfonamide compounds” (Gruenenthal GmbH, priority 2008, dated 2012).

For one assay, the target named is T1, human B1R (Homo sapiens, UniProt P46663).
T1 construct: expressed in transfected cells; host or cells: CHO K1 cells (hB1R cells)
T1 sequence (P46663 1-353): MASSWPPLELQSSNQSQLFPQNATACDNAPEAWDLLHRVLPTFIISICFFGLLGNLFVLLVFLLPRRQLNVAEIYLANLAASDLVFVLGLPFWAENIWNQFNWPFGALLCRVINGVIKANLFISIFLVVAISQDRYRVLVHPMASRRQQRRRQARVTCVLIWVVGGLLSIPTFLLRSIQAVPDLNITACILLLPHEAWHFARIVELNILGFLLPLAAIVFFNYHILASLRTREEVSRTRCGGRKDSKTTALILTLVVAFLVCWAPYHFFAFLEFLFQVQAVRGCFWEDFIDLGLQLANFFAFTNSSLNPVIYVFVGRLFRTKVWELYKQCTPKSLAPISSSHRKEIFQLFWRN
Kind of assay: FLIPR Ca2+ influx assay, B1R antagonism, human (hB1R CHO K1 cells). The assay is classed as cell-based. As to conditions: test substance 10 μM; CHO K1 cells stably transfected with human B1R; agonist Lys-Des-Arg9-bradykinin at EC80; % inhibition compared with maximum achievable inhibition; read-out: B1R antagonism, human [10 μM] % inhibition. The protocol: The agonistic or antagonistic action of substances can be quantified on the bradykinin receptor 1 (B1R) of the species human and rat using ectopically expressing cell lines (CHO K1 cells) and with the aid of a Ca^2+-sensitive dye (Fluo-4) using a fluorescent imaging plate reader (FLIPR). The indication in % activation is based on the Ca^2+ signal after addition of Lys-Des-Arg^9-bradykinin (0.5 nM) or Des-Arg^9-bradykinin (100 nM). Antagonists lead to suppression of the Ca^2+ influx after the addition of the agonist. % Inhibition compared with the maximum achievable inhibition is indicated.
The agonistic or antagonistic action of substances can be determined on the bradykinin receptor 1 (B1R) of the species human and rat using the following assay. According to this assay, the Ca^2+ influx through the channel is quantified with the aid of a Ca^2+-sensitive dye (Fluo-4 type, Molecular Probes Europe BV, Leiden, Netherlands) using a Fluorescent Imaging Plate Reader (FLIPR, Molecular Devices, Sunnyvale, USA).
Chinese hamster ovary cells (CHO K1 cells) which have been stably transfected with the human B1R gene (hB1R cells) or with the B1R gene of the rat (rB1R cells) are used. For functional studies, the cells are plated out on black 96-well plates having a clear base (BD Biosciences, Heidelberg, Germany or Greiner, Frickenhausen, Germany) in a density of 20,000-35,000 cells/well. The cells are incubated overnight at 37° C. and with 5% CO2 in culture medium (hB1R cells: Nutrient Mixture Ham's F12, Gibco Invitrogen GmbH, Karlsruhe, Germany or DMEM, Sigma-Aldrich, Taufkirchen, Germany; rB1R cells: D-MEM/F12, Gibco Invitrogen GmbH, Karlsruhe, Germany), with 10 vol. % FBS (fetal bovine serum, Gibco Invitrogen GmbH, Karlsruhe, Germany or PAN Biotech GmbH, Aidenbach, Germany).
On the following day, the cells are loaded for 60 minutes at 37° C. with 2.13 μM Fluo-4 (Molecular Probes Europe BV, Leiden, Netherlands) in HBSS buffer (Hank's buffered saline solution, Gibco Invitrogen GmbH, Karlsruhe, Germany) […] (Sigma-Aldrich, Taufkirchen, Germany) and 10 mM HEPES (Sigma-Aldrich, Taufkirchen, Germany). The plates are then washed twice with HBSS buffer, and HBSS buffer additionally containing 0.1% BSA (bovine serum albumin; Sigma-Aldrich, Taufkirchen, Germany), 5.6 mM glucose and 0.05% gelatin (Merck KGaA, Darmstadt, Germany) is added to the plates. After incubation for a further 20 minutes at room temperature, the plates are inserted into the FLIPR for Ca^2+ measurement.
Alternatively, washing is carried out with buffer A (15 mM HEPES, 80 mM NaCl, 5 mM KCl, 1.2 mM CaCl2, 0.7 mM MgSO4, 2 g/l glucose, 2.5 mM probenecid) followed by loading with buffer A with added 2.5 μM Fluo-4 and 0.025% Pluronic F127 (Sigma-Aldrich, Taufkirchen, Germany). The cells are then washed twice with buffer A and incubated for 30 minutes at room temperature with buffer A additionally containing 0.05% BSA and 0.05% gelatin and are then inserted into the FLIPR for Ca^2+ measurement.
The Ca^2+-dependent fluorescence is measured before and after the addition of substances (λex=488 nm, λem=540 nm). Quantification is carried out by measuring the highest fluorescence intensity (FC, fluorescence counts) over time.
The FLIPR protocol consists of two substance additions. Test substances (10 μM) are first pipetted onto the cells and the Ca^2+ influx is compared with the control (hB1R: Lys-Des-Arg^9-bradykinin >=50 nM; rB1R: Des-Arg^9-bradykinin 10 μM). This gives the activation in %, based on the Ca^2+ signal after addition of Lys-Des-Arg^9-bradykinin (>=50 nM) or Des-Arg^9-bradykinin (10 μM). After 10-20 minutes' incubation, Lys-Des-Arg^9-bradykinin (hB1R) or Des-Arg^9-bradykinin (rB1R) is applied in the concentration of the EC80, and the influx of Ca^2+ is likewise determined. Antagonists lead to suppression of the Ca^2+ influx. The % inhibition compared with the maximum achievable inhibition is calculated. […]

Another assay addresses T2, B1R of the rat (Rattus norvegicus, UniProt P97583).
T2 construct: expressed in transfected cells; host or cells: CHO K1 cells (rB1R cells)
T2 sequence (P97583 1-337): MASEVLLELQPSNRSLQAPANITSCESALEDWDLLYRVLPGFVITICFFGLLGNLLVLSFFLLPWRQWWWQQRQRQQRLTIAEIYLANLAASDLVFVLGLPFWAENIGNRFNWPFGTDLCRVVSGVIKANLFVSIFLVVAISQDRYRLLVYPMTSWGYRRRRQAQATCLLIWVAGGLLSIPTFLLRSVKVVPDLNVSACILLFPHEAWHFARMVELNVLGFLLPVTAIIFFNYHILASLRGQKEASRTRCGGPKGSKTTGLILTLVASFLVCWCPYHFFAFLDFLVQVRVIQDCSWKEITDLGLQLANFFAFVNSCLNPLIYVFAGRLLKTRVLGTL
Put plainly: FLIPR Ca2+ influx assay, B1R antagonism, rat (rB1R CHO K1 cells). The assay is classed as cell-based. As to conditions: test substance 10 μM; CHO K1 cells stably transfected with rat B1R; agonist Des-Arg9-bradykinin at EC80; % inhibition compared with maximum achievable inhibition; read-out: B1R antagonism, rat [10 μM] % inhibition. An outline of the steps: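 CHO K1 cells stably expressing human or rat B1R were loaded with Fluo-4, and Ca^2+ fluorescence was read on a FLIPR. After 10–20 min with test substance, agonist was added at EC80: Lys-Des-Arg^9-bradykinin for hB1R, Des-Arg^9-bradykinin for rB1R. % inhibition is relative to maximal inhibition; IC50 from multiple concentrations, n=2–3, N≥2.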

One may read the inhibition as the change of the read-out against control, counted positive when it falls. Take `Cc1cc(S(=O)(=O)N2CCCCC2CCC(=O)N2CCC(CCN(C)C)(c3cccnc3)CC2)c(C)cc1Cl` (centres unmarked) [Example 11, 3-(1-(4-Chloro-2,5-dimethylphenylsulfonyl)piperidin-2-yl)-1-(4-(2-(dimethylamino)ethyl)-4-(pyridin-3-yl)piperidin-1-yl)propan-1-one]: the inhibition at 10 µM stood at 102% on human B1R and 101% on B1R of the rat.
As for `CN(C)CCC1(c2cccnc2)CCN(C(=O)COCC2CCc3ccccc3N2S(=O)(=O)c2ccc(Cl)c(Cl)c2)CC1` (centres unmarked) [Example 12, 2-((1-(3,4-Dichlorophenylsulfonyl)-1,2,3,4-tetrahydroquinolin-2-yl)methoxy)-1-(4-(2-(dimethylamino)ethyl)-4-(pyridin-3-yl)piperidin-1-yl)ethanone], the inhibition at 10 µM at human B1R was found to be 103%; at B1R of the rat, 90%.
As for `COc1cc(C)c(S(=O)(=O)N(C)CCOCC(=O)N2CCC(CCCN3CCCC3)(c3cccnc3)CC2)c(C)c1` [Example 13, 4-Methoxy-N,2,6-trimethyl-N-(2-(2-oxo-2-(4-(pyridin-3-yl)-4-(3-(pyrrolidin-1-yl)propyl)piperidin-1-yl)ethoxy)ethyl)benzenesulfonamide], the inhibition at 10 µM at human B1R came out at 97%; at B1R of the rat, 101%.
On the same counts, the results for `O=C(CC1CCCCN1S(=O)(=O)c1cccc(C(F)(F)F)c1)N1CCC(CCCN2CCCC2)(c2cccnc2)CC1` (centres unmarked) [Example 14, 1-(4-(Pyridin-3-yl)-4-(3-(pyrrolidin-1-yl)propyl)piperidin-1-yl)-2-(1-(3-(trifluoromethyl)phenylsulfonyl)piperidin-2-yl)ethanone] are 35% and 64%.
For the compound `Cc1cc(S(=O)(=O)N2CCCCC2CCC(=O)N2CCC(CCCN3CCCC3)(c3cccnc3)CC2)c(C)cc1Cl` (centres unmarked) [Example 15, 3-(1-(4-Chloro-2,5-dimethylphenylsulfonyl)piperidin-2-yl)-1-(4-(pyridin-3-yl)-4-(3-(pyrrolidin-1-yl)propyl)piperidin-1-yl)propan-1-one], the inhibition at 10 µM was determined as 84% at human B1R and 76% on B1R of the rat.
On the same counts, the results for `COc1cc(C)c(S(=O)(=O)N2CCCCC2COCC(=O)N2CCC(CCCN3CCCC3)(c3cccnc3)CC2)c(C)c1` (centres unmarked) [Example 16, 2-((1-(4-Methoxy-2,6-dimethylphenylsulfonyl)piperidin-2-yl)methoxy)-1-(4-(pyridin-3-yl)-4-(3-(pyrrolidin-1-yl)propyl)piperidin-1-yl)ethanone] are 97% and 102%.
In the case of `O=C(CC(NS(=O)(=O)c1ccc2ccccc2c1)c1ccccc1)N1CCC(CCCN2CCCC2)(c2cccnc2)CC1` (centres unmarked) [Example 17, N-(3-Oxo-1-phenyl-3-(4-(pyridin-3-yl)-4-(3-(pyrrolidin-1-yl)propyl)piperidin-1-yl)propyl)naphthalene-2-sulfonamide], the results for the inhibition at 10 µM on human B1R and on B1R of the rat were 94% and 81%, respectively.
The like results for `O=C(COCC1CCc2ccccc2N1S(=O)(=O)c1ccc(Cl)c(Cl)c1)N1CCC(CCCN2CCCC2)(c2cccnc2)CC1` (centres unmarked) [Example 18, 2-((1-(3,4-Dichlorophenylsulfonyl)-1,2,3,4-tetrahydroquinolin-2-yl)methoxy)-1-(4-(pyridin-3-yl)-4-(3-(pyrrolidin-1-yl)propyl)piperidin-1-yl)ethanone] were, in that order, 62% and 102%.
On the same counts, the results for `Cc1cc(S(=O)(=O)N2CCCCC2CCC(=O)N2CCC(CCCN(C)C)(c3cccnc3)CC2)c(C)cc1Cl` (centres unmarked) [Example 19, 3-(1-(4-Chloro-2,5-dimethylphenylsulfonyl)piperidin-2-yl)-1-(4-(3-(dimethylamino)propyl)-4-(pyridin-3-yl)piperidin-1-yl)propan-1-one] are 82% and 98%.
On the same counts, the results for `CN(C)CCCC1(c2cccnc2)CCN(C(=O)CC(NS(=O)(=O)c2ccc3ccccc3c2)c2ccccc2)CC1` (centres unmarked) [Example 20, N-(3-(4-(3-(Dimethylamino)propyl)-4-(pyridin-3-yl)piperidin-1-yl)-3-oxo-1-phenylpropyl)naphthalene-2-sulfonamide] are 57% and 94%.
Take `CN(C)CCCC1(c2cccnc2)CCN(C(=O)COCC2CCc3ccccc3N2S(=O)(=O)c2ccc(Cl)c(Cl)c2)CC1` (centres unmarked) [Example 21, 2-((1-(3,4-Dichlorophenylsulfonyl)-1,2,3,4-tetrahydroquinolin-2-yl)methoxy)-1-(4-(3-(dimethylamino)propyl)-4-(pyridin-3-yl)piperidin-1-yl)ethanone]: the results for the inhibition at 10 µM at human B1R and on B1R of the rat were 56% and 98%, respectively.
The like results for `COc1cc(C)c(S(=O)(=O)N2CCCCC2COCC(=O)N2CCC(CCCN(C)C)(c3cccnc3)CC2)c(C)c1` (centres unmarked) [Example 22, 1-(4-(3-(Dimethylamino)propyl)-4-(pyridin-3-yl)piperidin-1-yl)-2-((1-(4-methoxy-2,6-dimethylphenylsulfonyl)piperidin-2-yl)methoxy)ethanone] were, in that order, 98% and 102%.
Consider `COc1cc(C)c(S(=O)(=O)N(C)CCOCC(=O)N2CCC(CCCN(C)C)(c3cccnc3)CC2)c(C)c1` [Example 23, N-(2-(2-(4-(3-(Dimethylamino)propyl)-4-(pyridin-3-yl)piperidin-1-yl)-2-oxoethoxy)ethyl)-4-methoxy-N,2,6-trimethylbenzenesulfonamide], for which the inhibition at 10 µM at human B1R was 100%; at B1R of the rat, 101%.
